Counter-ions that a name gives are not always drawn.
Each compound was assayed on Acinetobacter baumannii ATCC17961 (assay: Antimicrobial susceptibility testing: 90% growth inhibitory concentration (IC90) determination in Iso-Sensitest broth, OD600 growth). Settings: Acinetobacter baumannii, ATCC17961, 16 h, read-out: A. baumannii ATCC 17961 IC90 (uM), strain ATCC 17961, OD600 growth over 16 h.
Type: cell-based
How it was run: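 Each strain, at about 5×10^(5) CFU/ml, was incubated with twofold dilutions of compound at 35±2° C for 16 h, and IC90 was calculated from kinetic optical density measured at 600 nm during logarithmic growth.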

Row | SMILES | IC90
1 | NCCNC(=O)N1CCN(C(=O)c2ccc(Nc3nccn4c(-c5c[nH]nc5C(F)(F)F)cnc34)cc2Cl)CC1 [Example 392, N-(2-aminoethyl)-4-[2-chloro-4-[[3-[3-(trifluoromethyl)-1H-pyrazol-4-yl]imidazo[1,2-a]pyrazin-8-yl]amino]benzoyl]piperazine-1-carboxamide formate] | 0.208 µM
2 | C=C(Cl)C(C)n1cc(-c2cnc3c(Nc4ccc(C(=O)NCCOCCN)c(CC)c4)nccn23)c(C(F)(F)F)n1 (stereo not shown) [Example 275, N-[2-(2-aminoethoxy)ethyl]-4-[[3-[1-(3-chlorobut-3-en-2-yl)-3-(trifluoromethyl)pyrazol-4-yl]imidazo[1,2-a]pyrazin-8-yl]amino]-2-ethylbenzamide formate] | 0.169 µM
3 | Cc1cc(Nc2nccn3c(-c4c[nH]nc4C(F)(F)F)cnc23)ccc1C(=O)N1CCN(C(=O)NC2CNC2)CC1 [Example 408, N-(azetidin-3-yl)-4-[2-methyl-4-[[3-[3-(trifluoromethyl)-1H-pyrazol-4-yl]imidazo[1,2-a]pyrazin-8-yl]amino]benzoyl]piperazine-1-carboxamide formate] | 0.481 µM
4 | CCc1cc(Nc2nccn3c(-c4cn(Cc5cccnc5)nc4C(F)(F)F)cnc23)ccc1C(=O)NCCCNCCCCNCCCN [Example 7, N-[3-[4-(3-aminopropylamino)butylamino]propyl]-2-ethyl-4-[[3-[1-(pyridin-3-ylmethyl)-3-(trifluoromethyl)pyrazol-4-yl]imidazo[1,2-a]pyrazin-8-yl]amino]benzamide hydrochloride] | 0.782 µM
5 | CNCC1(O)CCN(C(=O)c2ccc(Nc3nccn4c(-c5cn(CC#N)nc5C(F)(F)F)cnc34)cc2Cl)CC1 [Example 14, 2-[4-[8-[3-chloro-4-[4-hydroxy-4-(methylaminomethyl)piperidine-1-carbonyl]anilino]imidazo[1,2-a]pyrazin-3-yl]-3-(trifluoromethyl)pyrazol-1-yl]acetonitrile formate] | 0.141 µM
6 | N[C@H]1CCN(C(=O)N2CCN(C(=O)c3ccc(Nc4nccn5c(-c6c[nH]nc6C(F)(F)F)cnc45)cc3Cl)CC2)C1 [Example 328, [4-[(3S)-3-aminopyrrolidine-1-carbonyl]piperazin-1-yl]-[2-chloro-4-[[3-[3-(trifluoromethyl)-1H-pyrazol-4-yl]imidazo[1,2-a]pyrazin-8-yl]amino]phenyl]methanone formate] | 0.157 µM
7 | N#CCn1cc(-c2cnc3c(Nc4ccc(C(=O)N5CCN(C(=O)N6CC[C@H](N)C6)CC5)c(Cl)c4)nccn23)c(C(F)(F)F)n1 [Example 180, 2-[4-[8-[4-[4-[(3S)-3-aminopyrrolidine-1-carbonyl]piperazine-1-carbonyl]-3-chloroanilino]imidazo[1,2-a]pyrazin-3-yl]-3-(trifluoromethyl)pyrazol-1-yl]acetonitrile formate] | 0.182 µM

Same assay, conditions: Acinetobacter baumannii, ATCC17961, 16 h, strain ATCC 17961, OD600 growth over 16 h, read-out: A. baumannii ATCC 17961 IC90

Row | SMILES | IC90
8 | CCc1cc(Nc2nccn3c(-c4cn(CC(F)F)nc4C(F)(F)F)cnc23)ccc1C(=O)NCCNC(=O)[C@H]1C[C@H](N)C1 [Example 488, N-(2-((1r,3r)-3-aminocyclobutane-1-carboxamido)ethyl)-4-((3-(1-(2,2-difluoroethyl)-3-(trifluoromethyl)-1H-pyrazol-4-yl)imidazo[1,2-a]pyrazin-8-yl)amino)-2-ethylbenzamide formate] | 0.147 µM
9 | CCc1cc(Nc2nccn3c(-c4cn(CC(F)F)nc4C(F)(F)F)cnc23)ccc1C(=O)NCCOC[C@@H](C)N [Example 151, N-[2-[(2R)-2-aminopropoxy]ethyl]-4-[[3-[1-(2,2-difluoroethyl)-3-(trifluoromethyl)pyrazol-4-yl]imidazo[1,2-a]pyrazin-8-yl]amino]-2-ethylbenzamide] | 0.204 µM

Other lines, results leading:

Row | IC90 | SMILES
10 | 1.06 µM | Cc1cc(Nc2nccn3c(-c4cn(CC#N)nc4C(F)(F)F)cnc23)ccc1C(=O)NCC(=O)N[C@H]1CCNC1 [Example 780, 4-[[3-[1-(cyanomethyl)-3-(trifluoromethyl)pyrazol-4-yl]imidazo[1,2-a]pyrazin-8-yl]amino]-2-methyl-N-[2-oxo-2-[[(3S)-pyrrolidin-3-yl]amino]ethyl] benzamide formate]
11 | 1.4 µM | CCc1cc(Nc2nccn3c(-c4c[nH]nc4C(F)(F)F)cnc23)ccc1C(=O)NCCCN [Example 365, N-(3-aminopropyl)-2-ethyl-4-[[3-[3-(trifluoromethyl)-1H-pyrazol-4-yl]imidazo[1,2-a]pyrazin-8-yl]amino]benzamide hydrochloride]
12 | 0.222 µM | N#CCn1cc(-c2cnc3c(Nc4ccc(C(=O)N5CC6(C5)CN(C(=O)[C@@H]5CCCN5)C6)c(Cl)c4)nccn23)c(C(F)(F)F)n1 [Example 636, (S)-2-(4-(8-((3-chloro-4-(6-prolyl-2,6-diazaspiro[3.3]heptane-2-carbonyl)phenyl)amino)imidazo[1,2-a]pyrazin-3-yl)-3-(trifluoromethyl)-1H-pyrazol-1-yl)acetonitrile]
13 | 0.226 µM | CCc1cc(Nc2nccn3c(-c4cn(CC#N)nc4C(F)(F)F)cnc23)ccc1C(=O)NCCNC(=O)[C@@H]1C[C@@H](O)CN1 [Example 637, (2S,4R)-N-(2-(4-((3-(1-(cyanomethyl)-3-(trifluoromethyl)-1H-pyrazol-4-yl)imidazo[1,2-a]pyrazin-8-yl)amino)-2-ethylbenzamido)ethyl)-4-hydroxypyrrolidine-2-carboxamide]
14 | 2.02 µM | C[C@H]1CNCCN1C(=O)c1ccc(Nc2nccn3c(-c4c[nH]nc4C(F)(F)F)cnc23)cc1Cl [Example 325, [2-chloro-4-[[3-[3-(trifluoromethyl)-1H-pyrazol-4-yl]imidazo[1,2-a]pyrazin-8-yl]amino]phenyl]-[(2S)-2-methylpiperazin-1-yl]methanone]
15 | 1.05 µM | O=C(c1ccc(N(c2nccn3c(-c4c[nH]nc4C(F)(F)F)cnc23)C(F)F)cc1Cl)N1CCNCC1 [Example 9, [2-chloro-4-[difluoromethyl-[3-[3-(trifluoromethyl)-1H-pyrazol-4-yl]imidazo[1,2-a]pyrazin-8-yl]amino]phenyl]-piperazin-1-ylmethanone]
16 | 0.157 µM | C=CCn1cc(-c2cnc3c(Nc4ccc(C(=O)N5CCC(CN)CC5)c(CC)c4)nccn23)c(C(F)(F)F)n1 [Example 53, [4-(aminomethyl)piperidin-1-yl]-[2-ethyl-4-[[3-[1-prop-2-enyl-3-(trifluoromethyl)pyrazol-4-yl]imidazo[1,2-a]pyrazin-8-yl]amino]phenyl] methanone]

Same assay, conditions: strain ATCC 17961, OD600 growth over 16 h, read-out: A. baumannii ATCC 17961 IC90

Row | SMILES | IC90
17 | O=C(NC1CCN(C(=O)c2ccc(Nc3nccn4c(-c5c[nH]nc5C(F)(F)F)cnc34)cc2Cl)CC1)N[C@H]1CCNC1 [Example 144, 1-[1-[2-choro-4-[[3-[3-(trifluoromethyl)-1H-pyrazol-4-yl]imidazo[1,2-a]pyrazin-8-yl]amino]benzoyl]piperidin-4-yl]-3-[(3S)-pyrrolidin-3-yl]urea] | 0.335 µM
18 | C=CCn1cc(-c2cnc3c(Nc4cc(C)c(C(=O)NCCOCCN)c(F)c4)nccn23)c(C(F)(F)F)n1 [Example 51, N-[2-(2-aminoethoxy)ethyl]-2-fluoro-6-methyl-4-[[3-[1-prop-2-enyl-3-(trifluoromethyl)pyrazol-4-yl]imidazo[1,2-a]pyrazin-8-yl]amino] benzamide] | 0.13 µM
19 | N[C@H]1CC[C@H](NC(=O)N2CCN(C(=O)c3ccc(Nc4nccn5c(-c6c[nH]nc6C(F)(F)F)cnc45)cc3Cl)CC2)C1 [Example 292, N-[(1S,3S)-3-aminocyclopentyl]-4-[2-chloro-4-[[3-[3-(trifluoromethyl)-1H-pyrazol-4-yl]imidazo[1,2-a]pyrazin-8-yl]amino]benzoyl] piperazine-1-carboxamide formate] | 0.354 µM

From patent US20230203043A1, “NOVEL IMIDAZOPYRAZINE DERIVATIVES” (Hoffmann-La Roche Inc., priority 2020, published 2023)
